Measured values: patent publication US5401724A, “Therapeutic treatment of chronic myelogenous leukemia by administration of 2-chloro-2'-deoxy adenosine” (priority 1994, dated 1995)
Values belong to the compound of their own block, whether it stands above or below them.

Assays:
[1] = pH 1, 37 degrees C.; cited from earlier work
[2] = test system: chronic myelogenous leukemia; settings: cited from earlier work; for bone marrow cells with the translocation: marrow of treated patients
[3] = test system: delayed-type hypersensitivity; assay: Oral and IP effects on delayed-type hypersensitivity (DTH) to ovalbumin (Example 5, first study); assay type: in vivo, guinea pig; settings: for inhibition of swelling compared to saline control: 24 and 48 hours after ovalbumin challenge; for effectiveness when given orally: without the protection of an enteric coating (2-CdA), preliminary in vivo studies
Method: (§1) Delayed-type hypersensitivity (DTH) is a cell-mediated immune response that typically takes longer than 12 hours to develop. In the guinea pig, a DTH reaction to an antigen can be established by first immunizing the animal with the antigen in an adjuvant such as Freund's complete adjuvant. Subsequent intradermal injection of the antigen causes no change for at least 10 hours, after which there is a gradual increase in erythema and swelling in response to antigen injection. This response peaks about at about 24 hours after challenge, then gradually subsides.
(§2) Histologically, the inflammatory response is characterized by intense inundation of the site with mononuclear cells, of which about half are lymphocytes and the other half monocytes. DTH is therefore an indicator of a monocyte-mediated immune reaction.
In one study, guinea pigs were sensitized to ovalbumin in adjuvant. […] The animals were then injected with ovalbumin intradermally to elicit the DTH response. The mean area of the swelling size was measured for each animal (nine or ten animals were treated for each protocol).

[4] = test system: delayed-type hypersensitivity; assay: Effects of different dosages of 2-CdA on DTH to ovalbumin (Example 5, second study); assay type: in vivo, guinea pig; settings: for inhibition of swelling compared to saline control: 24 and 48 hours post-challenge, p <0.01 by Student's t-test
Method: as §1, §2
Three days after treatment, the animals were challenged with ovalbumin intradermally. The areas of the skin lesions were measured at 6, 24, and 48 hours after challenge.

[5] = test system: HL-60 (monocyte-like cell line); assay: cells; settings: Homo sapiens
From the text: (§4) Of the other five cell lines, two were T cell lines, one called CEM and the other Molt-4, and the remaining three were monocyte-like cell lines, designated THP-1, U937 and HL-60, respectively.

CEM (T cell line) = assay: cells; settings: Homo sapiens
From the text: as §4

[6] = test system: CEM, Increased 5'-nucleoside; assay: cells; settings: Homo sapiens, 120 h, read-out: ID50
From the text: (§5) ^1 Concentration that produced 50 percent reduction in all numbers

CEM, wild type [7] = test system: CEM, wild type
From the text: as §5

K562 (myeloid cell line) = assay: cells; settings: Homo sapiens
Method: (§6) Seven different cell lines were treated with varying concentrations of 2-chloro-9,1'-beta-2'-deoxy-2'-fluoro-D-arabinofuranosyladenine (CAFdA) to determine percent viability. CAFdA concentrations ranging from 0 to about 260 nM were used to treat each cell line in vitro.

[8] = test system: THP-1 (monocyte-like cell line); assay: cells; settings: Homo sapiens
From the text: as §4

[9] = test system: Peripheral blood lymphocytes; assay: cells; settings: Homo sapiens, Lymphocyte, 120 h, read-out: ID50
From the text: as §5

[10] = test system: CEM, Increased 5'-nucleoside
From the text: as §5

[11] = test system: U937 (monocyte-like cell line); assay: cells; settings: Homo sapiens, U-937
From the text: as §4

[12] = test system: Peripheral blood lymphocytes
From the text: as §5

[13] = test system: CEM, deoxyeytidine kinase deficient; assay: cells; settings: Homo sapiens, 120 h, read-out: ID50
From the text: as §5

Monocytes [14] = test system: Monocytes
From the text: as §5

SB (B cell line) = assay: cells; settings: Homo sapiens
Method: as §6

[15] = test system: DHL9, Increased ribonucleotide reduction; assay: cells; settings: Homo sapiens, 120 h, read-out: ID50
From the text: as §5

Monocytes [16] = assay: cells; settings: Homo sapiens, Monocyte, 120 h, read-out: ID50
From the text: as §5

Molt-4 (T cell line) = assay: cells; settings: Homo sapiens
From the text: as §4

CEM, wild type [17] = assay: cells; settings: Homo sapiens, 120 h, read-out: ID50
From the text: as §5

[18] = test system: DHL9, Increased ribonucleotide reduction
From the text: as §5

[19] = test system: total circulating peripheral blood granulocytes; assay: Effect of 2-CdA on total circulating peripheral blood granulocytes in a patient with CML (Example 2); assay type: in vivo, human
Method: (§3) Each course was repeated every 28 days until the maximum hematological remission response of the treatment was achieved. The median age of the patients was 60 years, with a range of 52 to 75 years. There were 3 males and 2 females. A median of 2 courses of treatment was administered, with a range of 1 to 4 courses.

CFU-GM cells = settings: 100 nM; cited from earlier work
granulocytes [20] = assay: Effects of 2-CdA on granulocyte counts in two non-CML (multiple sclerosis) patients (Example 3); assay type: in vivo, human
From the text: Those results are illustrated and discussed hereinafter in Example 3.
Granulocyte counts were obtained from two patients who were receiving 2-CdA in the treatment of a non-leukemic disease, multiple sclerosis. These patients therefore had normal granulocytes.

[21] = test system: Primitive burst-forming unit-erythroid (pBFU-E) cells; settings: read-out: IC50 (concentration required to inhibit 50 percent of growth); cited from earlier work
[22] = test system: colony forming unit-erythroid (CFU-E) cells; settings: read-out: IC50 (concentration required to inhibit 50 percent of growth); cited from earlier work
[23] = test system: chronic myelogenous leukemia; assay: Hematological remission in patients with stable phase CML treated with 2-CdA (Example 1); assay type: in vivo, human
Method: as §3
The median follow-up was 3.2 months, with a range from 1.0 to 5.7 months.

[24] = test system: Colony forming unit-granulocyte macrophage (CFU-GM) cells; settings: read-out: IC50 (concentration required to inhibit 50 percent of growth); cited from earlier work
[25] = test system: Mature BFU-E (mBFU-E) cells; settings: read-out: IC50 (concentration required to inhibit 50 percent of growth); cited from earlier work
granulocytes [26] = settings: hairy cell leukemia, cited from earlier work
neutrophils = settings: chronic lymphocytic leukemia; serum levels less than 10 nM; in most cases; cited from earlier work
CML in blast crisis = settings: Phase I, cited from earlier work
[27] = 1 mg/kg, intraperitoneal, p <0.01 by Student's t-test

Compound: Nc1ncnc2c1ncn2[C@@H]1O[C@H](CO)C[C@H]1F [2'-fluoro-2',3'-dideoxyribose]
stability [1]: stable

Compound: Nc1ncnc2c1ncn2[C@@H]1O[C@H](CO)C[C@@H]1F [2'-fluoro-2',3'-dideoxyarabinose]
stability [1]: stable

Compound: α-interferon
bone marrow cells with the translocation [2]: sometimes loses the clone with the translocation

Compound: C[C@@H]1C[C@H]2[C@@H]3CCC4=CC(=O)C=C[C@]4(C)[C@@]3(F)[C@@H](O)C[C@]2(C)[C@@]1(O)C(=O)CO [dexamethasone, reference compound]
inhibition of swelling compared to saline control ([3]; 5 mg/kg, intraperitoneal, p <0.01 by Student's t-test): significant inhibition of swelling | inhibition of swelling compared to saline control ([3]; 5 mg/kg, oral, p <0.01 by Student's t-test): significant inhibition of swelling | inhibition of swelling compared to saline control ([4]; 5 mg/kg): effective at inhibiting swelling

Compound: CS(=O)(=O)OCCCCOS(C)(=O)=O [busulfan]
serious complication ("busulfan lung") ([2]; CML treatment): bronchopulmonary dysplasia with pulmonary fibrosis | bone marrow cells with the translocation [2]: still contains a predominance of cells with the translocation

Compound: NC(=O)NO [hydroxyurea]
bone marrow cells with the translocation [2]: still contains a predominance of cells with the translocation

IC50 [6]: 126 nM | IC50 [9]: 18 nM | IC50 [13]: 716000 nM | IC50 [15]: 6000 nM | IC50 (Monocytes [16]): 47 nM | IC50 (CEM, wild type [17]): 67 nM
Compound: Nc1nc(Cl)nc2c1ncn2[C@@H]1O[C@H](CO)[C@@H](O)[C@@H]1F [CAFdA, 2-chloro-9,1'-beta-2'-deoxy-2'-fluoro-D-arabinofuranosyladenine]
viability at 0.05 µM [5]: ≤ 60% | viability at 0.06 µM [5]: < 20% | viability at 0.13 µM [5]: < 10% | viability at 0.05 µM (CEM (T cell line)): ≤ 60% | viability at 0.06 µM (CEM (T cell line)): < 20% | viability at 0.13 µM (CEM (T cell line)): < 10% | CAFdA/2-CdA (ID50 ratio) (CEM, wild type [7]): 3.1 | viability at 0.26 µM (K562 (myeloid cell line)): 40% | viability at 0.05 µM [8]: ≤ 60% | viability at 0.06 µM [8]: < 20% | viability at 0.13 µM [8]: < 10% | inhibition of swelling compared to saline control [3, 27]: significant inhibition of swelling | inhibition of swelling compared to saline control ([3]; 1 mg/kg, oral, p <0.01 by Student's t-test): significant inhibition of swelling | effectiveness when given orally ([3]; oral): effective | CAFdA/2-CdA (ID50 ratio) [10]: 2.1 | viability at 0.06 µM [11]: < 20% | viability at 0.13 µM [11]: < 10% | CAFdA/2-CdA (ID50 ratio) [12]: 1.9 | CAFdA/2-CdA (ID50 ratio) (Monocytes [14]): 2.1 | viability at 0.26 µM (SB (B cell line)): 90% | viability at 0.06 µM (Molt-4 (T cell line)): < 20% | viability at 0.13 µM (Molt-4 (T cell line)): < 10% | CAFdA/2-CdA (ID50 ratio) [18]: 15.

Compound: Nc1nc(Cl)nc2c1ncn2[C@H]1C[C@H](O)[C@@H](CO)O1 [2-CdA, 2-chloro-2'-deoxyadenosine]
IC50 [6]: 60 nM | granulocyte count ([19]; second course, day 5): 27,724 /μl | decrease from the granulocyte count at day zero ([19]; second course, day 13): > 99% | granulocyte count ([19]; second course, day 13): 210 µL⁻¹ | granulocyte count ([19]; second course, day 17): 690 µL⁻¹ | granulocyte count ([19]; second course, day zero (start of therapy)): 34,831 /μl | granulocyte count ([19]; third course, day 5, unit not given): 5,676 /μl | decrease from the initial granulocyte level ([19]; third course, day 14): approximately 98% | granulocyte count ([19]; third course, day 14, unit not given): 270 µL⁻¹ | lower than the initial granulocyte count ([19]; third course, day 17): 95% | granulocyte count ([19]; third course, day 17, unit not given): 525 µL⁻¹ | granulocyte count ([19]; third course, day zero, unit not given): 11,060 /μl | reduction of CFU-GM growth (CFU-GM cells): 60% | inhibition of swelling compared to control animals [3, 27]: significant inhibition of swelling | effect on DTH swelling, oral route ([3]; 1 mg/kg, oral, without enteric coating): ineffective | effectiveness when given orally ([3]; oral): ineffective | IC50 [9]: 15 nM | granulocyte counts after several courses (granulocytes [20]; multiple sclerosis patients, about 0.1 mg/kg/day, seven day continuous infusion): substantially unchanged | effect on the granulocyte count (granulocytes [20]; two multiple sclerosis patients): did not affect the granulocyte count | IC50 [21]: 19 nM | IC50 [22]: 56 nM | toxicity attributable to 2-CdA ([23]; 0.1 mg/kg per day continuous i.v. infusion for 7 days, 1 to 4 courses): No toxicity attributable to 2-CdA was encountered | hematological remission upon follow-up, Patient 4 ([23]; 1 course, prior hydroxyurea and α-interferon, follow-up 1.5 months): complete hematological remission | hematological remission upon follow-up, Patient 5 ([23]; 2 courses, prior hydroxyurea, follow-up 1.0 months): complete hematological remission | hematological remission upon follow-up, Patient 2 ([23]; 2 courses, prior hydroxyurea, follow-up 3.0 months): complete hematological remission | hematological remission upon follow-up, Patient 3 ([23]; 3 courses, prior hydroxyurea and α-interferon, follow-up 3.2 months): complete hematological remission | hematological remission upon follow-up, Patient 1 ([23]; 4 courses, prior hydroxyurea, follow-up 5.7 months): complete hematological remission | complete hematological remissions (normalization of peripheral leukocyte counts, platelet counts, and resolution of splenomegaly) ([23]; 5 patients, 0.1 mg/kg per day continuous i.v. infusion for 7 days, repeated every 28 days, median 2 courses): All five patients obtained complete hematological remissions | median follow-up (all patients continuing in hematologic remission) ([23]; 5 patients, range 1.0 to 5.7 months): 3.2 months | Philadelphia chromosome at follow-up ([23]; all patients): persistence of the Philadelphia chromosome | hematologic remission at follow-up, all patients ([23]; median follow-up 3.2 months): All patients continue to be in hematologic remission | IC50 [13]: 716000 nM | inhibition of swelling compared to saline control ([4]; 0.1 mg/kg): effective at inhibiting swelling | inhibition of swelling compared to saline control ([4]; 1 mg/kg): effective at inhibiting swelling | areas of swelling, 0.1 vs 1.0 mg/kg ([4]; 0.1 and 1.0 mg/kg): substantially the same | areas of swelling compared to dexamethasone-treated animals ([4]; 0.1 and 1.0 mg/kg 2-CdA vs dexamethasone 5 mg/kg): slightly less than the value obtained with dexamethasone | IC50 [24]: 16 nM | IC50 [15]: 4000 nM | IC50 (Monocytes [16]): 22 nM | IC50 [25]: 38 nM | neutropenia (granulocytes [26]): transient neutropenia | granulocyte counts (granulocytes [26]; transient): under 500 per microliter | neutrophil count (neutrophils): increase in neutrophil count | IC50 (CEM, wild type [17]): 21 nM | detectable tumor (CML in blast crisis; another of two patients): loss of detectable tumor in another patient | blast count (CML in blast crisis; one of two patients): decrease in blast count in one patient
